Results as given in US8258081B2, “Use of C3 to C14 aliphatic aldehydes, ketones and primary and secondary C3 to C7 aliphatic alcohols to inhibit sprouting of potato tubers” (Washington State University Research Foundation, priority 2007, dated 2012).
Each block holds one compound with its values, some of them ahead of it.

Assays:
[1] = system: potato tubers; test: Sprout inhibition by T2N and its metabolites, sprout fresh weight 21 days after treatment at 19° C.; format: in vivo; details: for % Inhibition of sprouting: 24 h treatment
Experimental: (§1) The objective of this study was to determine the metabolites of 3-nonen-2-one (3N2) and trans-2-nonenal (T2N), which are two examples of α,β-unsaturated aldehydes and ketones that inhibit sprouting in potatoes as described in U.S. Pat. No. 6,855,669. Potato tubers were treated with 3N2 or T2N (0.75 mmol/kg tuber) for 24 h in a closed chamber. The chemicals were volatilized from filter paper inside the chamber. The tubers were removed from the treatment chamber and placed at 9° C. for up to 28 days.
The objective of this study was to determine the extent to which nonanal, 1-nonanol, and trans-2-nonene-1-ol (metabolites of T2N) inhibit sprouting of potato tubers relative to T2N. Tubers were treated separately with 0.25, 0.5 and 0.75 mmol/kg of T2N, nonanal, 1-nonanol, and trans-2-nonene-1-ol for 24 h as described in Example 1. The treated tubers were placed at 19° C. and sprout fresh weights were measured 21 days after treatment. T2N inhibited sprouting (100%) at all concentrations. Nonanal and 1-nonanol inhibited sprouting by 13 to 51%, depending on the compound and the concentration that was used.

[2] = system: potato tubers; test: Residues and metabolites of 3N2 and T2N in treated potato tubers; details: for metabolites formed in tubers: tubers treated with 0.75 mmol/kg for 24 h, stored at 9° C. up to 28 days; for persistence of metabolite residue: tubers treated with 0.75 mmol/kg parent compound, 9° C., 28 days
Experimental: FIG. 1. Levels of 3-nonen-2-one, 2-nonanone, and 2-nonanol in tubers initially treated with 0.75 mmol/kg 3-nonen-2-one and stored at 9° C. Content of residues in the outer 20 mm of tuber.
FIG. 2. Levels of trans-2-nonenal, nonanal, trans-2-nonen-1-ol and 1-nonanol in tubers initially treated with 0.75 mmol/kg trans-2-nonenal and stored at 9° C. Content of residues in the outer 20 mm of tuber.
as §1
Samples were taken for analysis of residues and metabolite identification over the 28-day storage period.

[3] = system: Russet Burbank tubers; test: Sprout inhibition by mixtures of 3N2 and 2-nonanone, sprout fresh weight 21 days after treatment at 22° C.; format: in vivo, potato
Experimental: FIG. 3. Effects of 3-nonen-2-one (3N2) in various combinations with 2-nonanone on sprouting of Russet Burbank tubers. The compounds were applied as described in Example 1. Tubers were treated for 24 h, removed from treatment chambers, and placed at 22° C. to sprout for 3 weeks. Sprout fresh weight is expressed as a percentage of control (non-treated), which were 100% sprouted.
as §1
The objective of this study was to determine the efficacy of mixtures of 3N2 and its metabolite, 2-nonanone, on sprout inhibition. Tubers were treated as described in Example 1 with 0 to 0.75 mmol/kg of 3N2 combined factorially with 0 to 0.75 mmol/kg of 2-nonanone. The treated tubers were placed at 22° C. and sprout fresh weights were measured 21 days after treatment. […]

[4] = system: potato tubers; test: Sprout inhibition by 3N2, 2-nonanone and 2-nonanol, sprout fresh weight 21 days after treatment at 18° C.; format: in vivo; details: for % Inhibition of sprouting: 24 h treatment; for inhibition of sprout growth relative to non-treated controls: 0.5 and 0.75 mmol/kg
Experimental: as §1
Tubers were treated separately as described in Example 1 with 0, 0.25, 0.5, and 0.75 mmol/kg of 3N2,2-nonanone, and 2-nonanol. The treated tubers were placed at 18° C. and sprout fresh weights were measured 21 days after treatment.

[5] = system: Premier Russet tubers; test: Long term sprout inhibition during storage at 9° C.; format: in vivo, potato; details: 0.75 mmol/kg; for duration of sprout suppression: re-applied between second and third month
Experimental: FIG. 4. Effect of trans-2-hexen-1-ol, 2-heptanol, decanal and 3-decanone on sprouting in Premier Russet tubers during long term storage at 9° C.
The objective of this study was to determine the extent to which trans-2-hexen-1-ol, 2-heptanol, decanal, and 3-decanone inhibit sprouting during extended storage under typical commercial storage conditions. Premier Russet tubers were treated separately with 0.75 mmol/kg of each compound in 190 L plastic barrels at room temperature. Chemicals were volatilized from filter paper within the barrels which were sealed for 24 hours during application. Tubers were then stored at 9° C. and sampled monthly to determine the amount of sprouting on a per tuber basis. All treatments were re-applied between the second and third month of storage. […] 2-heptanol and decanal suppressed sprouting for 114 days (about 4 months of control). 3-decanone suppressed sprouting for 83 days.

[6] = system: potato tubers; test: Sprout inhibition by C5 to C7 alcohols, sprout fresh weight 21 days after treatment at 18° C.; format: in vivo; details: 24 h treatment
Experimental: as §1
The objective of this study was to determine the extent to which 1-heptanol, 1-hexanol, 2-heptanol, trans-2-hepten-1-ol, trans-2-hexen-1-ol and 1-pentanol (C5 to C7 alcohols) inhibit sprouting of potato tubers. Tubers were treated separately with 0.25, 0.5, 0.75 or 1 mmol/kg of each alcohol for 24 h as described in Example 1. The treated tubers were placed at 18° C. and sprout fresh weights were measured 21 days after treatment. […] C7 alcohols inhibited sprouting by about 50 to about 100%, depending on the precise treatment.

[7] = system: potatoes; details: with two applications, table-stock and processing potatoes; cited from earlier work

Structure (SMILES): CCCCCC/C=C/C=O [trans-2-nonenal, reference compound]
% Inhibition of sprouting ([1]; 0.25 mmol/kg tubers): 100%
% Inhibition of sprouting ([1]; 0.5 mmol/kg tubers): 100%
% Inhibition of sprouting ([1]; 0.75 mmol/kg tubers): 100%
inhibition of sprouting relative to untreated control ([1]; over all concentrations (0.25, 0.5 and 0.75 mmol/kg)): 100%
metabolites formed in tubers [2]: trans-2-nonen-1-ol, nonanal and 1-nonanol

Structure (SMILES): CCCCCCCC(C)=O [2-nonanone]
Sprout growth (fresh weight) as % of non-treated tubers ([3]; average of 0.5 and 0.75 mmol/kg 2-nonanone): 58%
% Inhibition of sprouting ([4]; 0.25 mmol/kg tubers): 77.22%
% Inhibition of sprouting ([4]; 0.5 mmol/kg tubers): 97.9%
% Inhibition of sprouting ([4]; 0.75 mmol/kg tubers): 98.8%
inhibition of sprout growth relative to non-treated controls [4]: substantially inhibited sprout growth

Structure (SMILES): CCC/C=C/CO [trans-2-hexen-1-ol]
damage to the tuber periderm ([5]; after 83 days): excessive damage to the periderm
sprout control ([5]; up to 83 days): sprouts were effectively controlled up to this point
% Inhibition of sprouting ([6]; 0.25 mmol/kg tubers): 96%
% Inhibition of sprouting ([6]; 0.50 mmol/kg tubers): 100.0%
% Inhibition of sprouting ([6]; 0.75 mmol/kg tubers): 100.0%

Structure (SMILES): CCCCCCO [1-hexanol]
% Inhibition of sprouting ([6]; 0.25 mmol/kg tubers): 36.6%
% Inhibition of sprouting ([6]; 0.50 mmol/kg tubers): 61.3%
% Inhibition of sprouting ([6]; 0.75 mmol/kg tubers): 71.9%

persistence of metabolite residue [2]: most persistent metabolite
Structure (SMILES): CCCCCC/C=C/CO [trans-2-nonen-1-ol]
% Inhibition of sprouting ([1]; 0.25 mmol/kg tubers): 8.9%
% Inhibition of sprouting ([1]; 0.5 mmol/kg tubers): 62.8%
% Inhibition of sprouting ([1]; 0.75 mmol/kg tubers): 31.6%

Structure (SMILES): CCCCCCCCC=O [nonanal]
% Inhibition of sprouting ([1]; 0.25 mmol/kg tubers): 13.2%
% Inhibition of sprouting ([1]; 0.5 mmol/kg tubers): 32.1%
% Inhibition of sprouting ([1]; 0.75 mmol/kg tubers): 17.0%

metabolites formed in tubers [2]: 2-nonanone and 2-nonanol
Structure (SMILES): CCCCCC=CC(C)=O [3-nonen-2-one, reference compound]
Sprout growth (fresh weight) as % of non-treated tubers ([3]; 0.75 mmol/kg 3N2 applied alone): 9%
% Inhibition of sprouting ([4]; 0.25 mmol/kg tubers): 99.6%
% Inhibition of sprouting ([4]; 0.5 mmol/kg tubers): 99.9%
% Inhibition of sprouting ([4]; 0.75 mmol/kg tubers): 99.9%
inhibition of sprout growth relative to non-treated controls [4]: substantially inhibited sprout growth

Structure (SMILES): CCCCCCCCCO [1-nonanol]
% Inhibition of sprouting ([1]; 0.25 mmol/kg tubers): 28.3%
% Inhibition of sprouting ([1]; 0.5 mmol/kg tubers): 24.5%
% Inhibition of sprouting ([1]; 0.75 mmol/kg tubers): 50.9%

Structure (SMILES): CCCCCCCCCC=O [decanal]
duration of sprout suppression [5]: 114 days

Structure (SMILES): CCCCCCCC(=O)CC [3-decanone]
duration of sprout suppression [5]: 83 days

Structure (SMILES): CCCCCO [1-pentanol]
% Inhibition of sprouting ([6]; 0.25 mmol/kg tubers): 7.5%
% Inhibition of sprouting ([6]; 0.50 mmol/kg tubers): 32.5%
% Inhibition of sprouting ([6]; 0.75 mmol/kg tubers): 45.8%

Structure (SMILES): CCCCCC(C)O (stereo not drawn) [2-heptanol]
duration of sprout suppression [5]: 114 days
% Inhibition of sprouting ([6]; 0.25 mmol/kg tubers): 49.4%
% Inhibition of sprouting ([6]; 0.50 mmol/kg tubers): 89.0%
% Inhibition of sprouting ([6]; 0.75 mmol/kg tubers): 97.7%

Structure (SMILES): CCCC/C=C/CO [trans-2-hepten-1-ol]
% Inhibition of sprouting ([6]; 0.25 mmol/kg tubers): 91.7%
% Inhibition of sprouting ([6]; 0.50 mmol/kg tubers): 98.7%
% Inhibition of sprouting ([6]; 0.75 mmol/kg tubers): 99.4%

Structure (SMILES): CC(C)OC(=O)Nc1cccc(Cl)c1 [CIPC, chlorpropham]
duration of sprout inhibition / extended storage life [7]: up to 1 year

persistence of metabolite residue [2]: most persistent
Structure (SMILES): CCCCCCCC(C)O (stereo not drawn) [2-nonanol]
% Inhibition of sprouting ([4]; 0.25 mmol/kg tubers): 65.1%
% Inhibition of sprouting ([4]; 0.5 mmol/kg tubers): 79.8%
% Inhibition of sprouting ([4]; 0.75 mmol/kg tubers): 72.9%

Structure (SMILES): CCCCCCCO [1-heptanol]
% Inhibition of sprouting ([6]; 0.25 mmol/kg tubers): 51.8%
% Inhibition of sprouting ([6]; 0.50 mmol/kg tubers): 94.0%
% Inhibition of sprouting ([6]; 0.75 mmol/kg tubers): 95.7%
